From publication PMC11898701, “Evaluating Therapeutic Efficacy of the Vascular Disrupting Agent OXi8007 Against Kidney Cancer in Mice” (Cancers, 2025)

Test system: orthotopic XP258 human tumor xenografts
Assay: Acute response of XP258 tumors by MSOT
Type: in vivo, mouse
Conditions: XP258, four hours post-treatment, 250 mg/kg IP
Description: For the multispectral optoacoustic tomography (MSOT), an iThera InVision 256-TF device with seven wavelengths (700, 730, 760, 780, 800, 820, and 875 nm) was used. Mice were shaved and depilated around the tumor region. The anesthetized mouse (1–2% isoflurane) was placed in the imaging chamber (34 °C) for 10 min to reach thermal equilibrium before imaging a single slice showing the largest cross-section of the tumor. An oxygen gas breathing challenge was performed to assess the dynamic changes in blood oxygenation. Images were generated using ViewMSOT version 4.2 with a back projection-based reconstruction algorithm followed by built-in fluence correction. Oxy- and deoxyhemoglobin were resolved using a linear regression approach.
Oxygen saturation (sO2) maps were analyzed using MATLAB 2022b (MathWorks Inc., Natick, MA, USA), and the images were visualized with Fiji. The percentage of hemoglobin saturation (sO2) was calculated as follows:[…]
Blank pixels represent areas lacking a detectable hemoglobin signal. The average sO2^MSOT was calculated pixelwise in each ROI for the air and oxygen breathing periods as sO2^MSOT (Air) and sO2^MSOT (O2), and the response to the oxygen gas challenge was as follows:∆sO2 = sO2 (O2) − sO2 (Air)(2)

COc1ccc2c(C(=O)c3cc(OC)c(OC)c(OC)c3)c(-c3ccc(OC)c(OP(=O)(O)O)c3)[nH]c2c1 [OXi8007]
Tumor vascular oxygenation (MSOT): less well oxygenated and less responsive to the oxygen gas breathing challenge
